From ChEMBL document CHEMBL1148181, “Anti-AIDS agents, 9. Suberosol, a new C31 lanostane-type triterpene and anti-HIV principle from Polyalthia suberosa” (J Nat Prod, 1993)
In brackets after ≈: the same amount, converted by molar mass.

Key:
[1] = system: Human immunodeficiency virus 1; experiment: Antiviral activity against HIV1 3B in human H9 lymphocytes after 3 days by p24 antigen capture assay; assay type: functional, organism-based; conditions: Human immunodeficiency virus 1, 3B, 72 h
H9 = experiment: Cytotoxicity against human H9 lymphocytes; assay type: cell-based

EC50 [1]: 3 µg/mL (≈ 6.6 µM)
SMILES: C=C(CC[C@@H](C)[C@H]1C[C@H](O)[C@@]2(C)C3=CC[C@H]4C(C)(C)[C@@H](O)CC[C@]4(C)C3=CC[C@]12C)C(C)C [SUBEROSOL]
IC50 (H9): 20 µg/mL (≈ 44 µM)
